In brackets after ≈: the same amount, converted by molar mass.
How the values were obtained:
anti-CYP mAb 6F1G10 = assay: homologous ic-ELISA, hapten 1 coating antigen, mAb 6F1G10; format: binding, mouse; settings: hapten 1 as coating antigen
Experimental: (§1) The ic-ELISA procedure was executed according to previous studies. Each well of the ELISA plate was coated with 100 μL of coating antigen diluted with carbonate buffer (0.05 mol/L, pH 9.6) at 4 °C overnight. After washing three times with phosphate-buffered saline (PBS, 0.01 mol/L, pH 7.4) containing 1‰ Tween-20, the wells were blocked with 200 μL of 5% skim milk powder in PBS at 37 °C for two hours. After the same washing procedure, 50 μL of CYP standard solution and 50 μL of mAb were pipetted into each well and incubated at 37 °C for one hour. After washing five times, 100 μL per well of 0.5‰ horseradish peroxidase-labeled goat anti-mouse IgG antibody in PBS was added and incubated at 37 °C for one hour. After the wells were washed five times, 100 μL per well of fresh substrate solution (0.1 mg/mL 3,3′,5,5′-tetramethylbenzidine and 0.024‰ H2O2 in 0.1 M citrate acid buffer) was added to react at 37 °C for 15 min. Then, 50 μL per well of 0.2 mol/L H2SO4 was used to stop the reaction, and the absorbances were read at 450 nm with a microplate reader.
After five immunizations, the anti-serum of five mice was collected to determine the serum titer. All mouse serum had high titers ranging from 1:64,000 to 1:256,000. […] Then, the sensitivity of these monoclonal antibodies was evaluated by homologous ic-ELISA. […] The subtype of mAb 2G7H9 was determined as IgG2b by a kit. […]

anti-CYP mAb 2G7H9 = assay: ic-ELISA based on mAb 2G7H9; format: binding, mouse
Experimental: as §1
Under the optimal conditions, a standard curve was constructed using a series of concentrations of standard solutions (50, 25, 12.5, 6.25, 3.13, 1.56, 0.78, 0.39 and 0.20 ng/mL) to assess the sensitivity of ic-ELISA. The IC50 and linear range (IC10–IC90) were calculated by a logistic equation established with Origin Pro 8.0.
The CRs of the ic-ELISA were calculated with the following equation:CR (%) = (IC50 of CYP/IC50 of analogues) × 100%.

SMILES: CC1(C)C(C=C(Cl)Cl)C1C(=O)OC(C#N)c1cccc(Oc2ccccc2)c1 (stereo not drawn) [CYP, Cypermethrin]
- IC50 (anti-CYP mAb 6F1G10): 575 ng/mL (≈ 1.38 µM)
- IC50 (anti-CYP mAb 2G7H9; hapten 5-BSA as coating antigen, before buffer optimization): 5.75 ng/mL (≈ 0.0138 µM)
- IC50 (anti-CYP mAb 2G7H9; homologous ic-ELISA, hapten 1 as coating antigen): 19.14 ng/mL (≈ 0.046 µM)
- IC50 (anti-CYP mAb 2G7H9; homologous ic-ELISA, hapten 1 as coating antigen, listed as Cypermethrin): 19 ng/mL (≈ 0.0456 µM)
- limit of detection (IC10) (anti-CYP mAb 2G7H9; optimal conditions): 0.40 ng/mL
- linear range (IC10–IC90) (anti-CYP mAb 2G7H9; optimal conditions): 0.40 to 7.87 ng/mL
- IC50 (anti-CYP mAb 2G7H9; optimal conditions, coating antigen hapten 5-BSA, PBS pH 7.4, 10% methanol, 0.3 mol/L NaCl): 2.49 ng/mL (≈ 0.00598 µM)
- IC50 (anti-CYP mAb 2G7H9; working buffer: 10% Acetone): 7.99 ng/mL (≈ 0.0192 µM)
- IC50 (anti-CYP mAb 2G7H9; working buffer: 10% Acetonitrile): 8.88 ng/mL (≈ 0.0213 µM)
- IC50 (anti-CYP mAb 2G7H9; working buffer: 10% Dimethyl sulfoxide): 11.03 ng/mL (≈ 0.0265 µM)
- IC50 (anti-CYP mAb 2G7H9; working buffer: 10% Methanol (solvent type comparison)): 7.67 ng/mL (≈ 0.0184 µM)
- IC50 (anti-CYP mAb 2G7H9; working buffer: Methanol 5%): 30.63 ng/mL (≈ 0.0736 µM)
- IC50 (anti-CYP mAb 2G7H9; working buffer: Methanol 20%): 20.59 ng/mL (≈ 0.0495 µM)
- IC50 (anti-CYP mAb 2G7H9; working buffer: Methanol 40%): 24.47 ng/mL (≈ 0.0588 µM)
- IC50 (anti-CYP mAb 2G7H9; working buffer: Na+ 0.07 mol/L): 43.31 ng/mL (≈ 0.104 µM)
- IC50 (anti-CYP mAb 2G7H9; working buffer: Na+ 0.14 mol/L): 9.22 ng/mL (≈ 0.0221 µM)
- IC50 (anti-CYP mAb 2G7H9; working buffer: Na+ 0.2 mol/L): 13.58 ng/mL (≈ 0.0326 µM)
- IC50 (anti-CYP mAb 2G7H9; working buffer: Na+ 0.3 mol/L): 2.42 ng/mL (≈ 0.00581 µM)
- IC50 (anti-CYP mAb 2G7H9; working buffer: Na+ 0.4 mol/L): 2.94 ng/mL (≈ 0.00706 µM)
- IC50 (anti-CYP mAb 2G7H9; working buffer: pH 6): 4.41 ng/mL (≈ 0.0106 µM)
- IC50 (anti-CYP mAb 2G7H9; working buffer: pH 7): 5.24 ng/mL (≈ 0.0126 µM)
- IC50 (anti-CYP mAb 2G7H9; working buffer: pH 7.4): 3.09 ng/mL (≈ 0.00742 µM)
- IC50 (anti-CYP mAb 2G7H9; working buffer: pH 8): 8.06 ng/mL (≈ 0.0194 µM)
- IC50 (anti-CYP mAb 2G7H9; working buffer: pH 9): 4.03 ng/mL (≈ 0.00968 µM)

From publication PMC9688530, “Development of Ic-ELISA and Colloidal Gold Lateral Flow Immunoassay for the Determination of Cypermethrin in Agricultural Samples” (Biosensors, 2022)
